Data taken from PMC11901578, “Polymethoxyflavones and Bone Metabolism” (Nutrients, 2025).
Where two headings read alike, the source gives them in different places.

Legend:
estrogen receptor-α = estrogen receptor-α (Homo sapiens, UniProt P03372); experiment: Estrogen receptor-binding assay; settings: unpublished data
Text: (§1) An anticipated adverse effect of long-term flavonoid supplementation is an estrogen-like effect. Although isoflavones, such as genistein and daidzein, have estrogenic effects via binding to estrogen receptors, there are no reports on polymethoxyflavones. […] On the other hand, excessive long-term intake of PMFs may indicate some toxicity, since a high concentration of PMFs may lead to inhibited cell growth or cell death in various cell types, including osteoblasts, endothelial cells, and cancer cell lines.

estrogen receptor-β = estrogen receptor-β (Homo sapiens, UniProt Q92731); experiment: Estrogen receptor-binding assay; settings: unpublished data
Sequence of estrogen receptor-β (Q92731 whole entry): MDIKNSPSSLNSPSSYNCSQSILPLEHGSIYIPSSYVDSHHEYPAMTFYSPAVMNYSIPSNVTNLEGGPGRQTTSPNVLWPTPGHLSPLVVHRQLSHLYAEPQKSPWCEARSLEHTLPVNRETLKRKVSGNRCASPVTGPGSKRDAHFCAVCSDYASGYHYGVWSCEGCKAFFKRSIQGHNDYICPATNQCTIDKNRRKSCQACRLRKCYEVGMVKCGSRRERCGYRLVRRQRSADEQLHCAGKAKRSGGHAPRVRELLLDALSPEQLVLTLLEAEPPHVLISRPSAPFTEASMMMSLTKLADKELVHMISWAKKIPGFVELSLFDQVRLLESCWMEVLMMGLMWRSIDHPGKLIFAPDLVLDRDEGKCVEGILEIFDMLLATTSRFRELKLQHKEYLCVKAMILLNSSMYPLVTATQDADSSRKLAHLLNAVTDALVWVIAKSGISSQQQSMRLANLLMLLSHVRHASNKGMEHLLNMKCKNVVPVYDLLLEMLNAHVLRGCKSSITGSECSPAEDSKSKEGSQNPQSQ
Text: as §1

[1] = system: osteoclast differentiation in co-cultures of osteoblasts and bone marrow cells; settings: cited from earlier work
[2] = system: bone resorption in mouse bone organ cultures; design: method as in PMID 21258168, PMID 22850615; settings: 60 μM; cited from earlier work
[3] = system: osteoclast differentiation in co-culture system; settings: 30 μM, cited from earlier work
[4] = system: bone resorption in mouse calvarial or alveolar bone organ cultures; settings: 30 μM, bone organ cultures; cited from earlier work
Raw264.7 = settings: cited from earlier work
IKKβ = system: IKKβ; design: method as in PMID 21258168, PMID 22850615; settings: in vitro kinase assay; cited from earlier work
[5] = system: PGE2 production in osteoblasts; design: method as in PMID 21258168, PMID 22850615; settings: with downregulation of COX-2; cited from earlier work
[6] = system: human osteoblastic cell line MG-63; design: method as in PMID 34466066; settings: 10 and 20 μg/mL (approximately 25 and 50 μM); cited from earlier work
[7] = system: ectopic bone formation in mice; design: method as in PMID 36816515; settings: collagen sponge disk with BMP-2 (1 μg) and nobiletin (2.5 or 5 μg), fascia of back muscle; cited from earlier work
[8] = system: ovariectomized (OVX) mice; settings: cited from earlier work
[9] = system: human periodontal ligament cells (HPDLCs); settings: 12.5, 25, 50, and 100 μM, TNF- or IL-1-stimulated HPDLCs; cited from earlier work
[10] = system: alveolar bone loss in mice; settings: cited from earlier work; for alveolar bone loss in mice, restored: LPS +; for decrease of alveolar bone mineral density (ABMD): co-injection with LPS (25 μg/mouse/day), three times every other day, LPS alone 9%
[11] = system: collagen-induced arthritic mice; settings: cited from earlier work
[12] = system: MH7A human fibroblast-like synoviocytes (FLS); design: method as in PMID 31978425; settings: 50 μM; cited from earlier work
human OA chondrocytes = system: human OA chondrocytes; design: method as in PMID 30938722; settings: IL-1-stimulated human OA chondrocytes; cited from earlier work
DMM-OA mice = settings: cited from earlier work
[13] = system: NF-κB signaling in chondrocytes; design: method as in PMID 31214026; settings: 10, 20, and 40 μM; cited from earlier work
HL-60 cells = system: HL-60 cells; design: method as in PMID 23225422; settings: read-out: IC50, anti-proliferative effect on HL-60 cells; cited from earlier work
[14] = system: human umbilical vein endothelial cells (HUVECs); design: method as in PMID 22707269; settings: read-out: IC50, anti-proliferative effect on HUVECs; cited from earlier work
zebrafish embryos = system: zebrafish embryos; design: method as in PMID 22707269; settings: 30 μM, cited from earlier work
[15] = system: bone marrow macrophages (BMMs); settings: 50 μM; cited from earlier work
[16] = intraperitoneal 50 μM for 9 weeks
[17] = intraperitoneal 2 mg/mouse/day (approximately 67 mg/kg) for 4 weeks, Sham mice as 100%
[18] = subcutaneous 0.25 mg/day by mini-osmotic pump for 4 weeks

Sequence of estrogen receptor-α (P03372 whole entry): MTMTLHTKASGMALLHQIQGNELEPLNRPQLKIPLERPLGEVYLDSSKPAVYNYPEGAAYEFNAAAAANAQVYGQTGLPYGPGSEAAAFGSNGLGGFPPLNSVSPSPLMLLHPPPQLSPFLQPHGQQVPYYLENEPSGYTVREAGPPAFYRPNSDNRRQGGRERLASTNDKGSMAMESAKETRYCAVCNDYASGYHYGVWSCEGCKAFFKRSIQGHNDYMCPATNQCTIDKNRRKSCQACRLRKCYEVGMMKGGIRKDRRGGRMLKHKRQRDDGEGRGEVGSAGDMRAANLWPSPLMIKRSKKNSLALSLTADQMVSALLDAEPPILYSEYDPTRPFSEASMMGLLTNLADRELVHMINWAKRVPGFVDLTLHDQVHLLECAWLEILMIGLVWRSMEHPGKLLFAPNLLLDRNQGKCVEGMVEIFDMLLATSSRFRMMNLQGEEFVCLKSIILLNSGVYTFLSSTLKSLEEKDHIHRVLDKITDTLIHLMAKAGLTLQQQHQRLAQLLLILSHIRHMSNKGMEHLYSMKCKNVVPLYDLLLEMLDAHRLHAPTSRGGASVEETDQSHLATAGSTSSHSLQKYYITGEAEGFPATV

COc1ccc(-c2cc(=O)c3c(OC)c(OC)c(OC)c(OC)c3o2)cc1OC [Nobiletin, 3′,4′,5,6,7,8-Hexamethoxyflavone]
binding to estrogen receptor-α (estrogen receptor-α): unable to bind | binding to estrogen receptor-β (estrogen receptor-β): unable to bind | inhibition of IL-1-induced osteoclast differentiation ([1]; 10 μM): 20% | inhibition of IL-1-induced osteoclast differentiation ([1]; 30 μM): 85% | inhibition of IL-1-induced osteoclast differentiation ([1]; 60 μM): 100% | IC50 ([1]; IL-1 +, read-out: IC50, osteoclast differentiation in co-culture system): 33 µM | IL-1-induced bone resorption [2]: completely suppressed | LPS-induced osteoclast differentiation ([3]; co-cultures): significantly suppressed | osteoclast differentiation in co-culture system, inhibited ([3]; LPS +): 70% inhibited [8] | LPS-induced bone-resorbing activity [4]: significantly suppressed | RANKL-induced osteoclast differentiation (Raw264.7; 4, 20, and 50 μM, Raw264.7): suppressed RANKL-induced osteoclast differentiation in a dose-dependent manner | osteoclast differentiation in Raw264.7 cultures, inhibited (Raw264.7; RANKL +, 30 μM): 86% inhibited [8] | IC50 (Raw264.7; RANKL +, read-out: IC50, osteoclast differentiation in Raw264.7 cultures): 8 µM | IKKβ kinase activity (IKKβ): directly inhibited | PGE2 production [5]: suppressed | osteoblast differentiation and mineralization [6]: promoted osteoblast differentiation and mineralization in a dose-dependent manner | increase of bone formation (BV/TV) relative to BMP-2 alone [7]: 33% | effect on body weight and the uterus [8]: without affecting body weight and the uterus | BMD restored [8, 16]: 4.5% | BV/TV restored [8, 16]: 16% | trabecular separation (Tb.Sp) restored [8, 16]: 30% | bone mineral density (BMD) of the femur restored [8, 17]: 6% | bone volume/tissue volume (BV/TV) of the femur restored [8, 17]: 34% | trabecular BMD in the distal femur restored ([8]; oral 50 and 100 mg/kg for 12 weeks, similar effects at both dosages): 8% | distal BMD in the femur restored [8, 18]: 5% | whole BMD in the femur restored [8, 18]: 4% | expression of inflammatory cytokines (CXCL10, CCL2, IL-8), MMP-1, MMP-3, and COX-2 [9]: dose-dependently reduced | alveolar bone loss in mice, restored ([10]; 30 μg/mouse): 5% restored [8] | alveolar bone loss in mice, restored ([10]; 100 μg/mouse): 6% restored [8] | alveolar bone loss in mice, restored ([10]; 300 μg/mouse): 9% restored [8] | decrease of alveolar bone mineral density (ABMD) ([10]; 3 μg/mouse/day): 3% | decrease of alveolar bone mineral density (ABMD) ([10]; 100 μg/mouse/day): 4% | decrease of alveolar bone mineral density (ABMD) ([10]; 300 μg/mouse/day): 1% | gene expression and production of aggrecanase-1 and -2 ([11]; collagen-induced arthritic mice): downregulate | decrease of severity of arthritis ([11]; intraperitoneal 15, 30, and 60 mg/kg): 45% | IL-21-mediated inflammatory response [12]: suppressed | overproduction of inflammatory mediators (PGE2, NO, COX-2, iNOS, TNF-α, IL-6, MMPs) (human OA chondrocytes): significantly suppressed | cartilage destruction and synovitis (DMM-OA mice; DMM-OA mice, intraperitoneal 20 mg/kg every 2 days for 8 weeks): inhibited cartilage destruction and synovitis | cartilage destruction and subchondral bone thickening (DMM-OA mice; DMM-OA model mice): prevented cartilage destruction and thickening of the subchondral bone | IL-1-induced NF-κB signaling [13]: inhibited IL-1-induced NF-κB signaling in a dose-dependent manner | IC50 (HL-60 cells): 52 µM | IC50 [14]: 62 µM | anti-angiogenic effect on zebrafish embryos, inhibited (zebrafish embryos; listed as nobiletin): ~63% | anti-angiogenic effect on zebrafish embryos, inhibited (zebrafish embryos): 63% inhibited [47] | cytotoxicity to bone marrow macrophages (BMMs) [15]: cytotoxic
